Results reported in ChEMBL document CHEMBL1268985, “Syntheses of fluorescent imidazoquinoline conjugates as probes of Toll-like receptor 7” (Bioorg Med Chem Lett, 2010).

What was measured:
Toll-like receptor 7 = biological target: T1, Toll-like receptor 7 (Homo sapiens, UniProt Q9NYK1); assay: Agonist activity at human TLR7 expressed in HEK-Blue-7 cells assessed as increase in NF-kappaB activation by sAP assay; type: functional, cell-based
T1 sequence (Q9NYK1 whole entry): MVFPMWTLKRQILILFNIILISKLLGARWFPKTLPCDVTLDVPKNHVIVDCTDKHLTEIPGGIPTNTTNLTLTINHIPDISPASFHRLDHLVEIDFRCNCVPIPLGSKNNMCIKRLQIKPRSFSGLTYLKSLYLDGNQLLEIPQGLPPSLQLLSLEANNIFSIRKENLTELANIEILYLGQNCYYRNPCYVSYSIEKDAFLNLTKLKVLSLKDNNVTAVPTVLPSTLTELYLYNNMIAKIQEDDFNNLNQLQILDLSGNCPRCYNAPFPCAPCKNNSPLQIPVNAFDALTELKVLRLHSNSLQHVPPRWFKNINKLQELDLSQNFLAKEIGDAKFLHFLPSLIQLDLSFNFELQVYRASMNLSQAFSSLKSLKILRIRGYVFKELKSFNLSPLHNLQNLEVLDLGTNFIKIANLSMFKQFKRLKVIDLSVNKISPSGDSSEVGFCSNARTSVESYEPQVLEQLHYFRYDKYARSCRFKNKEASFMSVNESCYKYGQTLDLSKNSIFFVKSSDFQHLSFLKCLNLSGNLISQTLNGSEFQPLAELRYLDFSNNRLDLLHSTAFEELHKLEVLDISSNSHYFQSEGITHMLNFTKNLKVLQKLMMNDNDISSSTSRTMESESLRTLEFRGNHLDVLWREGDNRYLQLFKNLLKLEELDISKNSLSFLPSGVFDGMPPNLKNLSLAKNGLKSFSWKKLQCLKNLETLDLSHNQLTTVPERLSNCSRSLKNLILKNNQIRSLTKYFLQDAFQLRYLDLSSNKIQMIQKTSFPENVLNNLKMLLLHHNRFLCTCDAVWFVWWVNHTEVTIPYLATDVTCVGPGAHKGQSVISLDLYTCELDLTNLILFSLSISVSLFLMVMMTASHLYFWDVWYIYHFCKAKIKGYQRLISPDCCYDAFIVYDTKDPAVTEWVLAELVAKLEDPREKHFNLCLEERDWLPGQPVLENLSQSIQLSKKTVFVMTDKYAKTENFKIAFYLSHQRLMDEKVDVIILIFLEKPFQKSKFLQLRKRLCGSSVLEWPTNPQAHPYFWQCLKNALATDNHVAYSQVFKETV

[1] = Drug uptake in mouse J774.1 cells assessed as perinuclear localization at 100 nM by confocal fluorescence microscopy; type: ADME, cell-based; settings: j774.1, 0.1 µM
[2] = Drug uptake in human CD3-/CD56+ natural killer cells treated for 30 mins by flow cytometry; type: ADME; settings: nk cell, 0.5 h
[3] = Drug uptake in human CD3-/CD56- B lymphocytes treated for 30 mins by flow cytometry; type: ADME, cell-based; settings: b-cell, 0.5 h
[4] = Drug uptake in human CD3+/CD56- T lymphocytes treated for 30 mins by flow cytometry; type: ADME, cell-based; settings: t-cell, 0.5 h

Row | Structure (SMILES) | EC50 (Toll-like receptor 7) | Drug uptake [1] | Drug uptake [2] | Drug uptake [3] | Drug uptake [4]
1 | CCCCc1nc2c(N)nc3ccccc3c2n1Cc1cccc2ccccc12 | 396 nM | – | – | – | –
2 | CCCCc1nc2c(N)nc3ccccc3c2n1Cc1ccc(CNC(=S)NCCCCCNC(=O)COc2ccc(C3=[N+]4C(=Cc5ccc(-c6cccs6)n5[B-]4(F)F)C=C3)cc2)cc1 | 108 nM | Active | – | – | –
3 | CCCCc1nc2c(N)nc3ccccc3c2n1Cc1ccc(CNC(=S)Nc2cccc(-c3c4ccc(=O)cc-4oc4cc(O)ccc34)c2C(=O)O)cc1 | 247 nM | – | Active | Active | Active
4 | CCCCc1nc2c(N)nc3ccccc3c2n1Cc1ccc(CNC(=S)Nc2ccc(-c3c4ccc(=[N+](CC)CC)cc-4oc4cc(N(CC)CC)ccc34)c(C(=O)O)c2)cc1 | 115 nM | – | – | – | –
